The text below walks through data of patent US9701618B2, “Cannabidiol quinone derivatives” (VIVACELL BIOTECHNOLOGY ESPAÑA S.L., priority 2014, dated 2017).

In data set [1] the test system is PPARg. Briefly: PPARg transactivation assay (GAL4-PPARg/GAL4-luc) in HEK-293 and NIH-3T3 cells. The format is cell-based, human. The following applies: for PPARg transactivation (luciferase activity): treated 6 hours, compared with untreated cells. Here is the method: The concentration of the tested compound (μM) is shown at the x-axis and the PPARg activation fold is shown at the y-axis. […]. Fold activation level was calculated, taking the control sample (−), without the presence of any PPARg agonist or activating agent, as reference. Data are expressed as mean±S.D. of at least three independent experiments.
To investigate the biological activities of the novel compounds we performed PPARg transactivation assays in HEK-293 cells and in NIH-3T3 fibroblasts cells.
HEK293T cells and human primary fibroblasts cells were maintained at 37° C. in a humidified atmosphere containing 5% CO2 in DMEM supplemented with 10% fetal calf serum (FBS), and 1% (v/v) penicillin/streptomycin. Rosiglitazone was purchased from Cayman Chemical Company (Ann Arbor, Mich., USA). All other reagents were from Sigma Co (St Louis, Mo., USA). HEK293T cells (2×10^3/well) (FIGS. 1A, 1B and 1C) or NIH-3T3 cells (5×10^3/well) (FIG. 2) were seeded in BD Falcon™ White with Clear Bottom 96-well Microtest™ Optilux™ Plate for 24 hours. Afterwards, cells were transiently co-transfected with the expression vector GAL4-PPARγ and the luciferase reporter vector GAL4-luc using Roti©-Fect (Carl Roth, Karlsruhe, Germany) following the manufacturer's instructions. Twenty-four h post-transfection, cells were pretreated with increasing doses of the compounds for 6 hours. Then, the cells were lysed in 25 mM Tris-phosphate pH 7.8, 8 mM MgCl2, 1 mM DTT, 1% Triton X-100, and 7% glycerol. Luciferase activity was measured in the cell lysate using a TriStar LB 941 multimode microplate reader (Berthold) and following the instructions of the Luciferase Assay Kit (Promega, Madison, Wis., USA). Protein concentration was measured by the Bradford assay (Bio-Rad, Richmond, Calif., USA). The background obtained with the lysis buffer was subtracted in each experimental value and the specific transactivation expressed as a fold induction over untreated cells. All the experiments were repeated at least three times. The plasmids used were Gal4-hPPARgamma (plasmid name: pCMV-BD-hPPARg, Sinal Laboratory, Dept. of Pharmacology, Dalhousie University) and Gal4 luc reporter plasmid that includes five Gal4 DNA binding sites fused to the luciferase gene. […]. Data are given as means with deviation standard error bars of three replicates. […].

The subject of data set [2] is PPARg. Briefly: Inhibition of Rosiglitazone-induced PPARg activation in HEK-293 cells. The format is cell-based, human. To be noted: pretreated 30 min, then RSZ 1 μM for 6 hours. Here is the method: (A) HEK-293 cells were co-transfected with GAL4-PPARg and GAL4-luc. […] Protein lysates were prepared and analyzed for luciferase activity. The concentration of the tested compound (μM) is shown at the x-axis and the PPARg activation fold is shown at the y-axis.
(A) HEK293T cells were maintained at 37° C. in a humidified atmosphere containing 5% CO2 in DMEM supplemented with 10% fetal calf serum (FBS), and 1% (v/v) penicillin/streptomycin. Rosiglitazone was purchased from Cayman Chemical Company (Ann Arbor, Mich., USA). HEK293T cells (2×10^3/well) (FIG. 3A) were seeded in BD Falcon™ White with Clear Bottom 96-well Microtest™ Optilux™ Plate for 24 hours. Afterwards, cells were transiently co-transfected with the expression vector GAL4-PPARγ and the luciferase reporter vector GAL4-luc using Roti©-Fect (Carl Roth, Karlsruhe, Germany) following the manufacturer's instructions. Twenty-four h post-transfection, cells were pretreated with increasing doses of the compounds for 30 min and then stimulated with RSZ (1 μM) for 6 hours.

The test system of data set [3] is Jurkat cells. Nature of the data set: Mitochondrial membrane potential (MitoTracker Red CMXR, flow cytometry). The following applies: 2 hours, increasing concentrations. It counts as cell-based. In general terms: In flow cytometry, cells or beads pass a laser one at a time.
The next data set deals with human COL1A2 promoter. Nature of the data set: TGFb-induced collagen type I gene transcription (COL1A2-Luc) in NIH-3T3 fibroblasts. It counts as cell-based. To be noted: 30 min pre-incubation, TGFb 50 ng/ml 6 h. Here is the method: To investigate the potential anti-fibrotic activity of CBD-derivatives NIH-3T3 fibroblast cells were transiently transfected with the plasmid COL1A2-Luc plasmid by using Roti©-Fect according to the manufacturer instructions. The COL1A2-luciferase construct contains sequences from −353 to +58 bp of the human COL1A2 promoter fused to the luciferase reporter gene (pGL2 basic, Promega, Madison, Wis.). […] Protein lysates were prepared and analyzed for luciferase activity. The concentration of the tested compound (μM) is shown at the x-axis and the percentage of COL1A2 activation is shown at the y-axis considering 100% activation the effect of TGFb in the absence of the compounds. Data are expressed as mean±SD of at least three independent experiments.
Cultured NIH-3T3 fibroblast cells were transiently transfected with the plasmid COL1A2-Luc plasmid that contains sequences from −353 to +58 bp of the human COL1A2 promoter fused to the luciferase reporter gene. Twenty-four hour later the cells were incubated with compounds III, V, VIII and X (as examples) for 30 min and treated with TGFb (50 ng/ml) for 6 h. Protein lysates were prepared and analyzed for luciferase activity.

In data set [4] the test system is Jurkat cells. Nature of the data set: ROS generation (H2DCF-DA, flow cytometry). To be noted: 6 hours, increasing concentrations.
The test system of the next data set is NIH-3T3 cells. Briefly: TGFb-induced collagen production, Sirius Red-Fast Green method. It counts as cell-based. To be noted: 1 hour pre-incubation, TGFb 50 ng/ml 24 hours. Here is the method: The production of collagen was carried out using the Sirius Red-Fast Green method, designed to quantify the amount of collagen and non-collagen proteins in cell pellets. The collagen production was determined at 540 nm and 605 nm in a Genesis 10 UV scanning spectrofluorometer (Thermo Fisher Scientific). To calculate the amounts of collagen, first, we corrected the OD 540 value by subtracting the contribution by Fast Green, which interfere in the absorbance at 540 nm. Fast Green contributes 29.1% of the OD 540 value. The Color equivalence is 37.8 for collagen and 2.04 for non-collagen proteins at OD 540 and […], respectively. Collagen(pg/100 μl cell pellet)={[OD 540−(OD 605×0.291)]/37.8×1000}×10^6.
The experiments were repeated three times, and the results were expressed as a fold induction over untreated cells.
The production of collagen was carried out using the Sirius Red-Fast Green method, designed to quantify the amount of collagen and non-collagen proteins in cell pellets. NIH-3T3 cells were seeded at a density of 5×10^4/well in 24 well plates and they were incubated overnight at 37° C. to allow cell attachment. Next, cells were pre-incubated 1 hour with the indicated concentrations of compounds III, V, VIII and X and TGFb (50 ng/ml) during 24 hours. After the treatment, the cell pellets were extracted overnight at 4° C. with 100 μl of 0.5M acetic acid. Then, 1 ml of the dye solution (0.1% Sirius Red and 0.1% Fast Green dissolved in saturated picric acid) was added to the cell pellets and mixed gently at room temperature for 30 minutes. Next, samples were centrifuged at 10,000 g for 5 minutes to pellet the collagen. The supernatants were carefully removed without disturbing the pellet and 1 ml of 0.1 M hydrochloric acid was added to each tube to remove unbound dye. Samples were centrifuged at 10,000 g for 5 minutes and 1 ml of 0.5 M sodium hydroxide was added to each tube and vortex vigorously to release the bound dye. Samples were centrifuged at 2500 g for 5 minutes to re-pellet any cell debris.
The collagen production was determined and the results were expressed as a fold induction over untreated cells.

“Also recorded” adds a separate entry of the source.

As to `C=C(C)[C@@H]1CCC(C)=C[C@H]1C1=C(O)C(=O)C(CCCCC)=C(NCC(C)C)C1=O` [Compound IV, (1′R,6′R)-3-(Isobutylamine)-6-Hydroxy-3′-methyl-4-pentyl-6′-(prop-1-en-2-yl)-[1,1′-bi(cyclohexane)]-2′,3,6-triene-2,5-dione], in the data set on PPARg [1], the “PPARg transactivation (luciferase activity)” value is recorded as “the most active compounds”.
In the case of `C=C(C)[C@@H]1CCC(C)=C[C@H]1C1=C(O)C(=O)C(CCCCC)=C(NCCCC)C1=O` [Compound V, (1′R,6′R)-3-(Butylamine)-6-hydroxy-3′-methyl-4-pentyl-6′-(prop-1-en-2-yl)-[1,1′-bi(cyclohexane)]-2′,3,6-triene-2,5-dione], in the data set on PPARg [2], the “RSZ-induced PPARg transactivation” value is “decrease”. The “PPARg transactivation (luciferase activity)” value in the data set with PPARg [1] is listed as “the most active compounds”. In the data set with Jurkat cells [3], the mitochondrial membrane potential entry was “did not induce a loss”. For the same compound, in the data set on human COL1A2 promoter, the “TGFb-induced collagen type I gene transcription” value is “clearly inhibited”. In addition, the “intracellular ROS levels” value in the data set with Jurkat cells [4] is listed as “not reactive; also recorded: unable to induce ROS accumulation significantly”. Also, in the data set on NIH-3T3 cells, the TGFb-induced collagen production entry was “clearly inhibited”.
With `CN(CCOc1ccc(CC2SC(=O)NC2=O)cc1)c1ccccn1` (stereo not shown) [Rosiglitazone, reference compound], the “increase of PPARg activity (fold induction)” value in the data set with PPARg [1] (1 μM concentration) was “more than 100 times”.
`C=C(C)[C@@H]1CCC(C)=C[C@H]1C1=C(O)C(=O)C(CCCCC)=C(NCCC(C)C)C1=O` [Compound X, (1′R,6′R)-3-(Isopentylamine-6-Hydroxy)-3′-methyl-4-pentyl-6′-(prop-1-en-2-yl)-[1,1′-bi(cyclohexane)]-2′,3,6-triene-2,5-dione]: the “RSZ-induced PPARg transactivation” value in the data set with PPARg [2] was “decrease”. In addition, the mitochondrial membrane potential entry in the data set with Jurkat cells [3] was “did not induce a loss”. Also, the “TGFb-induced collagen type I gene transcription” value in the data set with human COL1A2 promoter is reported as “clearly inhibited”. Moreover, the “intracellular ROS levels” value in the data set with Jurkat cells [4] is “not reactive; also recorded: unable to induce ROS accumulation significantly”. Also, the TGFb-induced collagen production entry in the data set on NIH-3T3 cells is listed as “clearly inhibited”.
With `C=C(C)[C@@H]1CCC(C)=C[C@H]1C1=C(O)C(=O)C(CCCCC)=C(NCCCCC)C1=O` [Compound III, (1′R,6′R)-3-(Pentylamine)-6-Hydroxy-3′-methyl-4-pentyl-6′-(prop-1-en-2-yl)-[1,1′-bi(cyclohexane)]-2′,3,6-triene-2,5-dione], the “RSZ-induced PPARg transactivation” value in the data set on PPARg [2] was “decrease”. The “PPARg transactivation (luciferase activity)” value in the data set on PPARg [1] is listed as “the most active compounds”. Besides, in the data set with Jurkat cells [3], the mitochondrial membrane potential entry is “did not induce a loss”. In addition, in the data set on human COL1A2 promoter, the “TGFb-induced collagen type I gene transcription” value was “clearly inhibited”. The “intracellular ROS levels” value in the data set with Jurkat cells [4] is “not reactive; also recorded: unable to induce ROS accumulation significantly”. Also, in the data set on NIH-3T3 cells, the TGFb-induced collagen production entry is reported as “clearly inhibited”.
As for `C=C(C)[C@@H]1CCC(C)=C[C@H]1C1=C(O)C(=O)C(CCCCC)=C(NC(C)C)C1=O` [Compound VII, (1′R,6′R)-3-(Isopropylamine)-6-Hydroxy-3′-methyl-4-pentyl-6′-(prop-1-en-2-yl)-[1,1′-bi(cyclohexane)]-2′,3,6-triene-2,5-dione], the “PPARg transactivation (luciferase activity)” value with PPARg [1] was “the most active compounds”. For the same compound, in the data set on Jurkat cells [3], the mitochondrial membrane potential entry was “did not induce a loss”. Also, the “intracellular ROS levels” value in the data set with Jurkat cells [4] was “not reactive”.
As to `C=C(C)[C@@H]1CCC(C)=C[C@H]1C1=C(O)C(=O)C(CCCCC)=C(C(=O)OC/C=C(\C)CCC=C(C)C)C1=O` [Compound XIII, (E)-3,7-dimethylocta-2,6-dienyl-4-hydroxy-5-((1R,6R)-3-methyl-6-(prop-1-en-2-yl)cyclohex-2-enyl)-3,6-dioxo-2-pentylcyclohexa-1,4-dienecarboxylate], the “RSZ-induced PPARg transactivation” value in the data set on PPARg [2] is on record as “decrease”.
With `C=C(C)[C@@H]1CCC(C)=C[C@H]1C1=C(O)C(=O)C(CCCCC)=C(NCC)C1=O` [Compound II, (1′R,6′R)-3-(Ethylamine)-6-hydroxy-3′-methyl-4-pentyl-6′-(prop-1-en-2-yl)-[1,1′-bi(cyclohexane)]-2′,3,6-triene-2,5-dione], the “PPARg transactivation (luciferase activity)” value with PPARg [1] is on record as “the most active compounds”.
Consider `C=C(C)[C@@H]1CCC(C)=C[C@H]1C1=C(O)C(=O)C(CCCCC)=C(NCc2ccccc2)C1=O` [Compound VIII, (1′R,6′R)-3-(Benzylamine)-6-hydroxy-3′-methyl-4-pentyl-6′-(prop-1-en-2-yl)-[1,1′-bi(cyclohexane)]-2′,3,6-triene-2,5-dione], for which, in the data set with PPARg [2], the “RSZ-induced PPARg transactivation” value is recorded as “decrease”. In addition, the “PPARg transactivation (luciferase activity)” value in the data set with PPARg [1] is “the most active compounds”. Further, the “TGFb-induced collagen type I gene transcription” value with human COL1A2 promoter is “clearly inhibited”. For the same compound, the TGFb-induced collagen production entry in the data set on NIH-3T3 cells is recorded as “clearly inhibited”.
